Data as given in the NIST ThermoML archive (doi:10.1021/je300312c).
“And” between values parts separate entries of the source, which are not always exact repeats. Identical values can stand only once. ± gives the expanded uncertainty stated by the source.

Assays:
[1] = for vapor or sublimation pressure: Transpiration method
[2] = Molar enthalpy of transition or fusion; settings: Crystal; DSC

CCCn1cnc2ccccc21 [1-propyl-1H-benzimidazole]
[1], Liquid
Settings | vapor or sublimation pressure [kPa]
326.7 K | 0.00166 ± 7e-05
329.1 K | 0.00202 ± 9e-05
331.7 K | 0.00262 ± 0.00011
333.9 K | 0.00298 ± 0.00014
334.3 K | 0.00312 ± 0.00014
336.6 K | 0.00377 ± 0.00016
339.2 K | 0.0047 ± 0.0002
341.4 K | 0.00546 ± 0.00023
344.2 K | 0.00671 ± 0.00028
346.9 K | 0.00797 ± 0.00033
349.3 K | 0.00969 ± 0.00042
351.8 K | 0.01262 ± 0.00052
354.3 K | 0.01444 ± 0.00059
356.8 K | 0.01719 ± 0.0007
359.3 K | 0.01949 ± 0.00081
361.8 K | 0.02422 ± 0.001
364.3 K | 0.02965 ± 0.0012
366.6 K | 0.03507 ± 0.0014
369.3 K | 0.0417 ± 0.0017
372.4 K | 0.05004 ± 0.002
375.9 K | 0.06251 ± 0.0025

CCn1cnc2ccccc21 [1-ethyl-1H-benzimidazole]
[1], Liquid
Settings | vapor or sublimation pressure [kPa]
328.8 K | 0.00273 ± 0.00011
331.8 K | 0.00334 ± 0.00014
334.3 K | 0.0041 ± 0.00017
336.7 K | 0.00481 ± 0.0002
339.2 K | 0.00591 ± 0.00025
341.7 K | 0.00714 ± 0.0003
343.7 K | 0.00826 ± 0.00034
346.7 K | 0.01029 ± 0.00042
349.1 K | 0.01206 ± 0.00049
351.7 K | 0.01365 ± 0.00056
353.9 K | 0.01678 ± 0.00069
356.7 K | 0.01954 ± 0.00081
358.9 K | 0.02439 ± 0.001
361.2 K | 0.02801 ± 0.0011
363.9 K | 0.03343 ± 0.0014
366.6 K | 0.03948 ± 0.0016
368.9 K | 0.04573 ± 0.0019
372.1 K | 0.05679 ± 0.0023
375.1 K | 0.06706 ± 0.0027

Cn1cnc2ccccc21 [1-methylbenzimidazole]
[1]
Settings | Normal melting temperature [°C] | vapor or sublimation pressure [kPa]
300.7 K, Crystal | – | 0.0002 ± 2e-05
303.2 K, Crystal | – | 0.00026 ± 2e-05
305.6 K, Crystal | – | 0.00034 ± 2e-05
308.1 K, Crystal | – | 0.00046 ± 2e-05
311 K, Crystal | – | 0.00061 ± 3e-05
313.7 K, Crystal | – | 0.00082 ± 4e-05
314.2 K, Crystal | – | 0.00087 ± 4e-05
314.2 K, Liquid | – | 0.00115 ± 5e-05
316.6 K, Liquid | – | 0.00139 ± 6e-05
316.7 K, Crystal | – | 0.00112 ± 5e-05
319 K, Liquid | – | 0.00172 ± 7e-05
319.6 K, Crystal | – | 0.00154 ± 7e-05
321.5 K, Liquid | – | 0.00209 ± 9e-05
322.5 K, Crystal | – | 0.00213 ± 9e-05
324.5 K, Crystal | – | 0.00249 ± 0.0001
324.5 K, Liquid | – | 0.00278 ± 0.00012
325.5 K, Crystal | – | 0.0027 ± 0.00012
326.9 K, Crystal | – | 0.00316 ± 0.00014
326.9 K, Liquid | – | 0.00332 ± 0.00014
329.5 K, Liquid | – | 0.00402 ± 0.00017
331.5 K, Liquid | – | 0.0046 ± 0.0002
334.5 K, Liquid | – | 0.00598 ± 0.00025
335.9 K, Liquid | – | 0.00673 ± 0.00028
336.9 K, Liquid | – | 0.00709 ± 0.00029
337.5 K, Liquid | – | 0.00742 ± 0.00031
339.6 K, Liquid | – | 0.00868 ± 0.00036
341.6 K, Liquid | – | 0.01014 ± 0.00043
344.4 K, Liquid | – | 0.01267 ± 0.00053
347.2 K, Liquid | – | 0.0155 ± 0.00064
349.4 K, Liquid | – | 0.01858 ± 0.00077
351.8 K, Liquid | – | 0.02168 ± 0.00088
354.1 K, Liquid | – | 0.02462 ± 0.0012
354.4 K, Liquid | – | 0.0258 ± 0.0013
356.5 K, Liquid | – | 0.029 ± 0.0012
358.9 K, Liquid | – | 0.03371 ± 0.0014
361.3 K, Liquid | – | 0.0389 ± 0.0016
364 K, Liquid | – | 0.04752 ± 0.0019
366.8 K, Liquid | – | 0.0558 ± 0.0023
368.1 K, Liquid | – | 0.06162 ± 0.0025
369.4 K, Liquid | – | 0.06627 ± 0.0027
372.6 K, Liquid | – | 0.07877 ± 0.0032
374.5 K, Liquid | – | 0.08885 ± 0.0036
376 K, Liquid | – | 0.09738 ± 0.0039
Crystal, DTA | 60.1 ± 0.4 | –

Settings | Molar enthalpy of transition or fusion [kcal/mol]
[2] | 3.23 ± 0.0956

CCCCCn1cnc2ccccc21 [1-pentyl-1H-benzimidazole]
[1], Liquid
Settings | vapor or sublimation pressure
324.7 K | 0.00028 ± 2e-05 kPa
329.1 K | 0.00041 ± 2e-05 kPa
332 K | 0.00054 ± 3e-05 kPa
335.1 K | 0.00073 ± 3e-05 kPa
338.3 K | 0.0009 ± 4e-05 kPa
341.2 K | 0.00118 ± 5e-05 kPa
342.2 K | 0.00124 ± 6e-05 kPa
344 K | 0.00158 ± 7e-05 kPa
347.3 K | 0.00203 ± 8e-05 kPa
350.1 K | 0.00245 ± 0.0001 kPa
350.3 K | 0.00238 ± 0.0001 kPa
353.2 K | 0.00303 ± 0.00013 kPa
353.3 K | 0.00329 ± 0.00014 kPa
356.2 K | 0.00402 ± 0.00023 kPa
356.6 K | 0.00437 ± 0.00024 kPa
359.4 K | 0.00534 ± 0.00022 kPa
361.7 K | 0.00609 ± 0.00025 kPa and 0.0063 ± 0.00026 kPa
364.3 K | 0.00768 ± 0.00032 kPa and 0.0074 ± 0.00031 kPa
366.7 K | 0.00884 ± 0.00036 kPa
369.7 K | 0.0109 ± 0.00044 kPa
372.8 K | 0.0129 ± 0.00053 kPa
375.8 K | 0.01595 ± 0.00065 kPa
